The values below come from ChEMBL document CHEMBL1201862, “PubChem BioAssay data set” (2004).

Test systems include 786-0; A498; ACHN; BT-549; HOP-62; HT-29; K562; LOX IMVI; MDA-MB-435; MOLT-4; Malme-3M; OVCAR-5; PC-3; RPMI-8226; SF-268; SF-295; SK-MEL-28; SK-MEL-5; T47D; TK-10.
Common to all, as to test: NCI anticancer screen, dose series, 48 h

Each structure is given as a SMILES string.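 Cultured in 96-well plates, cells were exposed to test compound for 48 hours across five concentrations. GI50 is the concentration that inhibits growth by half.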 The source made the active and inactive calls. Cut-off read from the data, not from the text of the source: active = GI50 up to about 1.1 µM and inactive = higher.

For `COc1cc(/C=N/n2c(-c3ccccc3)nn(C(C)=O)c2=O)cc(OC)c1OC`, the GI50 in the experiment with 786-0 was 4360 nM (inactive); in the experiment on A498 it was 1590 nM (inactive); in the experiment with ACHN, 6000 nM (inactive); in the experiment with BT-549 it was 8550 nM (inactive); in the experiment on HOP-62, 12000 nM (inactive); in the experiment with HT-29, 405 nM (active). Moreover, the GI50 is 557 nM (active) in the experiment on K562; 2720 nM (inactive) with LOX IMVI; 190 nM (active) in the experiment on MDA-MB-435; 714 nM (active) in the experiment on MOLT-4; 5360 nM (inactive) with Malme-3M; 20000 nM (inactive) in the experiment on OVCAR-5. The GI50 was 2070 nM (inactive) in the experiment on PC-3; 1490 nM (inactive) in the experiment with RPMI-8226; 6270 nM (inactive) with SF-268; 1020 nM (active) in the experiment on SF-295; 7130 nM (inactive) in the experiment with SK-MEL-28; 675 nM (active) in the experiment with SK-MEL-5. In addition, the GI50 in the experiment with T47D is 8020 nM (inactive); with TK-10, 3850 nM (inactive).

On to `Cn1c2ccccc2n2c3ncccc3c(=O)c(C#N)c12`, for which the GI50 is 8830 nM (inactive) in the experiment with 786-0; 10400 nM (inactive) with A498; 3090 nM (inactive) in the experiment on ACHN; 16500 nM (inactive) in the experiment with BT-549; 5180 nM (inactive) with HOP-62; 5510 nM (inactive) in the experiment on HT-29. Also, the GI50 in the experiment on K562 was > 100000 nM (inactive); in the experiment on LOX IMVI, 5960 nM (inactive); in the experiment with MDA-MB-435, 26700 nM (inactive); with MOLT-4, 3040 nM (inactive); in the experiment on Malme-3M, 6040 nM (inactive); in the experiment on OVCAR-5, 24500 nM (inactive). For the same compound, the GI50 was 19500 nM (inactive) with PC-3; > 100000 nM (inactive) with RPMI-8226; 18000 nM (inactive) in the experiment with SF-268; 7690 nM (inactive) in the experiment with SF-295; 44200 nM (inactive) in the experiment on SK-MEL-28; 4450 nM (inactive) with SK-MEL-5. The GI50 in the experiment with T47D is 15200 nM (inactive); with TK-10 it was 50600 nM (inactive).

As for `CC[C@H](C)[C@H]1NC(=O)[C@@H](NC(=O)[C@@H](CC(C)C)N(C)CC2CCCN2C(=O)C(C)=O)[C@@H](C)OC(=O)[C@H](Cc2ccc(OC)cc2)N(C)C(=O)C2CCCN2C(=O)[C@H](CC(C)C)NC(=O)[C@@H](C)C(=O)[C@H](C(C)C)OC(=O)C[C@@H]1O` (stereo not given in full), the GI50 with 786-0 was 4.94 nM (active); with A498, 4.71 nM (active); with ACHN, 4.44 nM (active); with BT-549, 4.7 nM (active); in the experiment with HOP-62, 3.61 nM (active); with HT-29, 2.55 nM (active). Besides, the GI50 was 5.31 nM (active) in the experiment with K562; 2.91 nM (active) in the experiment on LOX IMVI; 3.71 nM (active) in the experiment with MDA-MB-435; < 2.5 nM (active) in the experiment on MOLT-4; 6.81 nM (active) in the experiment with Malme-3M; 3.93 nM (active) in the experiment with OVCAR-5. The GI50 in the experiment on PC-3 was 4.06 nM (active); in the experiment on RPMI-8226 it was 3.13 nM (active); with SF-268, 4.88 nM (active); with SF-295 it was 3.71 nM (active); in the experiment on SK-MEL-28, 4.9 nM (active); with SK-MEL-5 it was 3.11 nM (active). In addition, the GI50 in the experiment with T47D was 3.44 nM (active); with TK-10, 8.53 nM (active).

As for `C[C@]12CCC(=O)C=C1CC[C@@H]1[C@@H]2[C@@H](O)C[C@@]2(C)[C@H]1CC[C@]2(O)C(=O)CO` [HYDROCORTISONE], the GI50 with 786-0, in the experiment on A498, with ACHN, in the experiment with BT-549, with HOP-62 and in the experiment with HT-29 was > 100000 nM (inactive) each time. In addition, the GI50 in the experiment on K562, with LOX IMVI, in the experiment on MDA-MB-435, in the experiment with MOLT-4, with Malme-3M and in the experiment on OVCAR-5 was > 100000 nM (inactive) in each case. The GI50 in the experiment on PC-3 is > 100000 nM (inactive); in the experiment on RPMI-8226, 340 nM (active); in the experiment with SF-268 it was > 100000 nM (inactive); in the experiment on SF-295, > 100000 nM (inactive); with SK-MEL-28, > 100000 nM (inactive); in the experiment with SK-MEL-5, > 100000 nM (inactive). In addition, the GI50 in the experiment with T47D and in the experiment on TK-10 was > 100000 nM (inactive) throughout.

Consider `C=C(C)[C@H]1Cc2c(ccc3c2O[C@@H]2COc4cc(OC)c(OC)cc4[C@@H]2C3=O)O1` [ROTENONE], for which the GI50 was 236 nM (active) with 786-0; 335 nM (active) in the experiment with A498; 52.2 nM (active) with ACHN; 164 nM (active) with BT-549; 168 nM (active) in the experiment on HOP-62; 127 nM (active) in the experiment on HT-29. The GI50 in the experiment with K562 was 92.9 nM (active); with LOX IMVI it was 62.4 nM (active); in the experiment on MDA-MB-435, 20.6 nM (active); in the experiment with MOLT-4, 693 nM (active); in the experiment on Malme-3M, 76.2 nM (active); in the experiment with OVCAR-5, 2550 nM (inactive). For the same compound, the GI50 with PC-3 is 155 nM (active); with RPMI-8226, 57.5 nM (active); in the experiment with SF-268 it was 191 nM (active); with SF-295 it was 39.9 nM (active); in the experiment on SK-MEL-28, 162 nM (active); with SK-MEL-5, 20.3 nM (active). For the same compound, the GI50 in the experiment with T47D is 98.9 nM (active); with TK-10 it was 229 nM (active).
